Patent publication US20190247376A1, “NICOTINIC ACETYLCHOLINE RECEPTOR AGONIST ATTENUATES ILC2-DEPENDENT AIRWAY HYPERREACTIVITY” (University of Southern California, priority 2016, published 2019)

Assays:
lung ILC2s = experiment: Flow cytometry of proliferation, transcription factor and signalling markers in lung ILC2s; assay type: cell-based, mouse; settings: BALB/cByJ mice, rm-IL-33 0.5 μg, agonist 125 μg, three consecutive days
Description: FIGS. 5A-5F: Cholinergic signal attenuates ILC2 proliferation and GATA3 expression. (FIG. 5A) Mean fluorescence intensity of Ki67 and percentage of Ki67+ cells in isolated lung ILC2s, stimulated with IL-33 in the absence and presence of α7nAChR. (FIG. 5B) Mean fluorescence intensity of GATA3 in isolated lung ILC2s, stimulated with IL-33 in the absence and presence of α7nAChR. One representative experiment of two is shown (n=5; Student's t test *, p<0.05; **, p<0.01; ***p<0.001). […] FACS-purified ILC2s from WT mice challenged with rm-IL-33 with or without α7nAChR agonist as described in FIG. 3A were quantified by NanoString nCounter technology. Data range from −1 to +1 for the most reduced and most increased gene expression, respectively. (FIG. 5D) Expression of NF-κB p65 in isolated lung ILC2s from mice challenged with IL-33 with (dotted line) or without (thick line) α7nAChR agonist. The level of isotype-matched stain control is shown as a gray-filled histogram. (FIG. 5E) Expression of phosphorylated IKKα/β (Ser176/180) in isolated lung ILC2s stimulated with IL-33, with (dotted line) or without (thick line) α7nAChR agonist for 24 hours. The level of isotype-matched stain control is shown as a gray-filled histogram. (FIG. 5F) Mean fluorescence intensity of phosphorylated IKKα/β with or without α7nAChR agonist.
FIGS. 9A-9C: Effect of α7nAChR agonist on some marker expressions by ILC2s. A cohort of BALB/cByJ mice were intranasally challenged with rm-IL-33 (0.5 μg) with or without α7nAChR agonist (125 μg) for three consecutive days. Histogram and MFI of CD25 (FIG. 9A), CD127 (FIG. 9B) and ST2 (FIG. 9C) in isolated lung ILC2s. Data are representative of at least two independent experiments and are presented as means±SEM (n=4; Student's t test *, p<0.05).
Biotinylated anti-mouse lineage (CD3e (145-2C11), CD45R (RA3-3B2), Gr-1 (RB6-8C5), CD11c (N418), CD11b (M1/70), Ter119 (TER-119), NK1.1 (PK136), TCR-β (H57-597), TCR-γδ (GL3), and FcεRIα (MAR-1), Streptavidin-FITC, FITC anti-mouse CD3 (145-2C11), BV510 anti-mouse CD4 (RM4-5), APC-Cy7 anti-mouse CD25 (PC61), PE anti-mouse CD25 (PC61), BV421 anti-mouse CD25 (PC61), BV510 anti-mouse CD90.2 (53-2.1), APC anti-mouse CD127 (A7R34), PE-Cy7 anti-mouse CD127 (A7R34), FITC anti-mouse CD45 (30F-11), PE/Cy7 anti-mouse CD45 (30-F11), PE anti-mouse IL-5 (TRFK5), BV421 anti-mouse GATA3 (16E10A23), 7-AAD Viability staining solution, purchased from BioLegend (San Diego, Calif.). PE anti-mouse ST2 (IL-33R, RMST2-2), PerCP-eFluor710 anti-Mouse ST2 (RMST2-2), Streptavidin APC-eFluor780, Alexa Fluor647 labeled anti-IL-4 (clone 11B11), eFluor 450 anti-mouse CD45 (30F-11), eFluor450 anti-CD44 (clone IM7), eFluor-660 anti-mouse Ki-67 (SollA15), PE/Cy7 anti-mouse IL-13 (eBio13A), anti-mouse BCL-2 (10C4), were purchased from eBioscience. Alexa Fluor 488 anti-mouse p65-NF-κB (532301) was purchased from R&D Systems (dilution 1:50). Alexa Fluor 647 conjugated α-bungarotoxin (Invitrogen, San Diego, Calif.). PE anti-mouse Phospho-IKKα/β (Ser 176/180) (16A6) was purchased from Cell Signaling Technology (dilution 1:50). PE anti-rat α7nAChR (319) was purchased from Santa Cruz Biotechnology (dilution 1:50). This antibody has been used to identify this receptor previously in several studies^69. Lineage marker antibodies were used at the dilution of 1:400, unless mentioned otherwise other antibodies were used at the dilution of 1:200.
Intracellular staining was performed using BD Cytofix/Cytoperm kit (BD Bioscience, San Jose, Calif.) according to the manufacturer's instructions. For analysis of GATA3 and Ki-67 expression, freshly isolated cells were fixed and permeabilized using Fixation/Permeabilization buffer kit (eBioscience) according to the manufacturer's instructions and as previously described^70.

[1] = cited from earlier work

Compound	expression of CD25, CD127, and ST2 by ILC2s (lung ILC2s)	AHR ([1]; HDM-induced asthma model)	Th2 cytokines ([1]; HDM-induced asthma model)	HDM-induced allergic lung inflammation ([1]; asthma model)
3-[(3E)-3-[(2,4-dimethoxyphenyl)methylidene]-5,6-dihydro-4H-pyridin-2-yl]pyridine [GTS-21]	did not alter	–	–	–
CN1CCCC1c1cccnc1 (stereo not shown) [nicotine]	–	not suppressed	suppression	attenuated
